The structures appear in SMILES notation.

The nature of data set [1]: in vitro dissolution test, microcentrifuge method, model fasted duodenal solution (Drug 2 compositions). Further details: AUC: concentration or dose not given beside the values. Format: physicochemical. The settings on record: for AUC90: aqueous area under the curve after 90 minutes; for AUC90 / C1200 / Cmax, 90 / AUC: MFDS; for AUC90 / C1200 / Cmax, 90: dosage 1000 μg/mL; for C1200: concentration at 1200 minutes; for Cmax, 90: maximum concentration of Drug 2 in solution during first 90 minutes; for Drug Concentration: MFDS pH 6.5, 37° C. On the procedure:
In vitro dissolution tests were performed to evaluate the performance of the amorphous dispersions of Examples 12-17 relative to the performance of Controls 4 and 5. The SDD of Example 12 was evaluated in an in vitro dissolution test using a microcentrifuge method. In this test, 3600 μg of the SDD of Example 12 was added to a microcentrifuge tube. The tube was placed in a 37° C. sonicating bath, and 1.8 mL of model fasted duodenal solution (MFDS), comprising phosphate buffered saline with 14.7 mM sodium taurocholic acid and 2.8 mM of 1-palmitoyl-2-oleyl-sn-glycero-3-phosphocholine, pH 6.5, 290 mOsm/kg, was added. […] The samples were quickly mixed using a vortex mixer for about 60 seconds. The samples were centrifuged at 13,000 G at 37° C. for 1 minute. The resulting supernatant solution was then sampled and diluted 1:6 (by volume) with methanol and then analyzed by high-performance liquid chromatography (HPLC). The contents of the tubes were mixed on the vortex mixer and allowed to stand undisturbed at 37° C. until the next sample was taken. Samples were collected at 4, 10, 20, 40, 90, and 1200 minutes.
For Controls 4 and 5, in vitro dissolution tests were performed using the procedures described above except that 1.8 mg of crystalline and amorphous Drug 2 was used, respectively.

A short description of data set [2]: in vitro dissolution test, microcentrifuge method, PBS (Drug 1 compositions). Format: physicochemical. The settings on record: for AUC90: area under aqueous concentration versus time curve after 90 minutes; for AUC90 / C1200 / Cmax, 90: PBS, dosage 2000 μg/mL; for C1200: concentration at 1200 minutes; for Cmax, 90: maximum concentration of Drug 1 in solution during first 90 minutes; for AUC / Drug Concentration: PBS pH 6.5, 37° C. On the procedure:
In vitro dissolution tests were performed to evaluate the performance of the amorphous dispersions of Examples 1-9 relative to the performance of Controls 1 and 2. The dissolution performance of the SDD of Example 1 was evaluated in an in vitro dissolution test using a microcentrifuge method. In this test, 14.4 mg of the SDD of Example 1 was added to a microcentrifuge tube. The tube was placed in a 37° C. sonicating bath, and 1.8 mL phosphate buffered saline (PBS) at pH 6.5 and 290 mOsm/kg was added. The samples were quickly mixed using a vortex mixer for about 60 seconds. The samples were centrifuged at 13,000 G at 37° C. for 1 minute. The resulting supernatant solution was then sampled and diluted 1:6 (by volume) with methanol and then analyzed by high-performance liquid chromatography (HPLC). The contents of the tubes were mixed on the vortex mixer and allowed to stand undisturbed at 37° C. until the next sample was taken. Samples were collected at 4, 10, 20, 40, 90, and 1200 minutes.
The performance of Example Nos. 2-8 was likewise evaluated in in vitro dissolution tests using the same microcentrifuge method described above. The dosage for each of these tests was 2000 μg/ml.
The performance of the amorphous dispersions of Example 9 were tested using the same microcentrifuge method, except that 2.5 grams of the coated beads were added to 50 mL of PBS solution (resulting in a dosage of 2000 μg/mL).
For Controls 1 and 2, in vitro dissolution tests were also performed using the same microcentrifuge method except that 3.6 mg of either crystalline or amorphous Drug 1 was used.
These compositions were evaluated in in vitro dissolution tests using the procedures outlined in Example 10. The quantities of drug and polymer noted above were each added to a microcentrifuge tube, to which was added 1.8 ml of PBS solution. The tube was vortexed immediately after adding the PBS solution.
A coating solution comprising 7.5 wt % HPMCAS-MF dissolved in 92.5 wt % solvent (5 wt % water in acetone) was prepared and spray-coated onto Nu-Core Beads (45/60 mesh), producing a thin coating of the polymer on the surface of the beads resulting in beads containing 12.2 wt % HPMCAS-MF. Samples of these beads (2.4 gm) were then mixed with 100 mg of amorphous Drug 1 (resulting in a drug:polymer ratio of 1:3 or 25 wt % Drug 1) and evaluated in an in vitro dissolution test using the procedures outlined in Example 10.
A composition was formed by blending 50 wt % of the SDD of Example 2 (containing 50 wt % Drug 1 and 50 wt % HPMCAS-MF) with 50 wt % HPMCAS-MF. This composition was evaluated in a dissolution test as described in Example 10.

For `O=C(N[C@@H](Cc1ccccc1)C(=O)N1CC(O)C1)c1cc2cc(Cl)ccc2[nH]1` [Control 5], the AUC90 in data set [1] is recorded as 20,800 min* μg/mL. In data set [1], this compound gave a C1200 of 370 µg/mL. In data set [1], the “Cmax, 90” value was determined as 268 µg/mL. Further, the AUC in data set [1] (time 0 min) was 0 µg·min/mL; in data set [1] (time 4 min) it was 302 µg·min/mL; in data set [1] (time 10 min) it was 1,400 min* μg/mL; in data set [1] (time 20 min), 3,500 min* μg/mL; in data set [1] (time 40 min) it was 8,100 min* μg/mL; in data set [1] (time 90 min), 20,800 min* μg/mL. Also, in data set [1] (time 1200 min), the AUC is 374,900 min* μg/mL. Besides, the “Drug Concentration” value in data set [1] (time 0 min) was found to be 0 µg/mL; in data set [1] (time 4 min), 151 µg/mL; in data set [1] (time 10 min), 203 µg/mL; in data set [1] (time 20 min) it was 225 µg/mL; in data set [1] (time 40 min), 238 µg/mL; in data set [1] (time 90 min), 268 µg/mL. In addition, in data set [1] (time 1200 min), the “Drug Concentration” value was 370 µg/mL.
`O=C(N[C@@H](Cc1ccccc1)[C@@H](O)C(=O)N1C[C@@H](O)[C@@H](O)C1)c1cc2cc(Cl)ccc2[nH]1` [Control 1]: the AUC90 in data set [2] is 12,800 min* μg/mL. Further, in data set [2], the C1200 turned out to be 125 µg/mL. In data set [2], the “Cmax, 90” value amounted to 149 µg/mL. Further, the AUC is 0 µg·min/mL in data set [2] (time 0 min); 260 µg·min/mL in data set [2] (time 4 min); 1,100 min* μg/mL in data set [2] (time 10 min); 2,500 min* μg/mL in data set [2] (time 20 min); 5,400 min* μg/mL in data set [2] (time 40 min); 12,800 min* μg/mL in data set [2] (time 90 min). In addition, the AUC in data set [2] (time 1200 min) is on record as 163,800 min* μg/mL. The “Drug Concentration” value was found to be 0 µg/mL in data set [2] (time 0 min); 130 µg/mL in data set [2] (time 4 min); 149 µg/mL in data set [2] (time 10 min); 139 µg/mL in data set [2] (time 20 min); 149 µg/mL in data set [2] (time 40 min); 147 µg/mL in data set [2] (time 90 min). For the same compound, the “Drug Concentration” value in data set [2] (time 1200 min) came to 125 µg/mL.
`O=C(N[C@@H](Cc1ccccc1)[C@@H](O)C(=O)N1C[C@@H](O)[C@@H](O)C1)c1cc2cc(Cl)ccc2[nH]1` [Control 2]: the AUC90 in data set [2] is 20,600 min* μg/mL. In data set [2], this compound registered a C1200 of 203 µg/mL. Further, the “Cmax, 90” value in data set [2] amounted to 586 µg/mL. The AUC in data set [2] (time 0 min) is 0 µg·min/mL; in data set [2] (time 4 min), 1,200 min* μg/mL; in data set [2] (time 10 min), 4,400 min* μg/mL; in data set [2] (time 20 min) it was 7,800 min* μg/mL; in data set [2] (time 40 min), 11,700 min* μg/mL; in data set [2] (time 90 min), 20,600 min* μg/mL. The AUC in data set [2] (time 180 min) is 35,200 min* μg/mL; in data set [2] (time 1200 min), 225,900 min* μg/mL. The “Drug Concentration” value in data set [2] (time 0 min) worked out at 0 µg/mL; in data set [2] (time 4 min) it was 586 µg/mL; in data set [2] (time 10 min), 473 µg/mL; in data set [2] (time 20 min), 220 µg/mL; in data set [2] (time 40 min), 182 µg/mL; in data set [2] (time 90 min), 167 µg/mL. For the same compound, the “Drug Concentration” value in data set [2] (time 180 min) came out at 158 µg/mL; in data set [2] (time 1200 min) it was 203 µg/mL.
For the compound `O=C(N[C@@H](Cc1ccccc1)C(=O)N1CC(O)C1)c1cc2cc(Cl)ccc2[nH]1` [Control 4], in data set [1], the AUC90 is 5,900 min* μg/mL. In addition, the C1200 in data set [1] amounted to 102 µg/mL. Further, in data set [1], the “Cmax, 90” value turned out to be 82 µg/mL. Also, the AUC is 0 µg·min/mL in data set [1] (time 0 min); 90 µg·min/mL in data set [1] (time 4 min); 357 µg·min/mL in data set [1] (time 10 min); 842 µg·min/mL in data set [1] (time 20 min); 2,100 min* μg/mL in data set [1] (time 40 min); 5,900 min* μg/mL in data set [1] (time 90 min). Further, in data set [1] (time 1200 min), the AUC is given as 108,100 min* μg/mL. Besides, the “Drug Concentration” value in data set [1] (time 0 min) is 0 µg/mL; in data set [1] (time 4 min) it was 45 µg/mL; in data set [1] (time 10 min) it was 44 µg/mL; in data set [1] (time 20 min) it was 53 µg/mL; in data set [1] (time 40 min) it was 72 µg/mL; in data set [1] (time 90 min), 82 µg/mL. The “Drug Concentration” value in data set [1] (time 1200 min) was 102 µg/mL.

As a reminder, the AUC is the area under the concentration-time curve, a measure of exposure.

(Values after patent publication US20010053778A1, “Pharmaceutical compositions of glycogen phosphorylase inhibitors” (priority 2000, published 2001).)
